Results from patent US20220023281A1, “HETEROCYCLIC SPIRO-COMPOUNDS AS AM2 RECEPTOR INHIBITORS” (THE UNIVERSITY OF SHEFFIELD, priority 2018, published 2022).

Target: T1, AM2 receptor-expressing cells (1321N1 cells transfected with CALCRL+RAMP3) (Homo sapiens, UniProt O60896+Q16602)
T1 construct: host or cells: 1321N1 cells
Assay: AM2 receptor inhibition, LANCE cAMP agonist-antagonist competition assay (AM2 D2 protocol)
Type: cell-based
Conditions: inhibition of AM induced cAMP in 1321N1 cells expressing CALCRL+RAMP3; read-out: AM2 D2 protocol: pIC50 (converted)
Method: Compounds were assessed for their ability to inhibit ligand-induced elevations of cAMP, using the Perkin Elmer LANCE cAMP assay using commercially-available cells expressing a specific receptor of interest using the following general procedure:
Compounds were prepared in dimethyl sulfoxide (DMSO—99.9% pure) (Sigma Aldrich, Cat #: D4540) added to powder stocks to produce a 20 mM solution (100% DMSO) that was sonicated at 37° C. for 10 minutes to fully dissolve the compounds. The 20 mM stocks were diluted further in DMSO to produce a 2 mM solution that was sonicated at 37° C. for 10 minutes. 2 mM stocks were dissolved in assay/stimulation buffer to produce a 400 μM solution that was sonicated at 37° C. for 10 minutes for all cAMP assays. All stocks were stored at −20° C. Then serial dilution (Dilution factor: 10) was performed to achieve the desire experimental concentrations.
Competition assays were performed according to the manufactures instructions using LANCE® TR-FRET cAMP assay kit (Perkin Elmer, Cat #: AD0264). Serial dilutions (3 μl/well) of the molecules were plated in a 384-well OptiPlate (Perkin Elmer, Cat #: 6007299) in duplicates. Appropriate controls (100% stimulation: Forskolin and 0% stimulation: Vehicle control) (6 μl/well) were included in each plate for data normalization. Following the compound addition, 6 μl of G-protein coupled receptor overexpressing cells/Alexa Fluor antibody solution (1:100 dilution) was added in each well at a desired density of 2500 cells/well. The overexpressing cell lines were purchased from DiscoveRx, Birmingham, UK. After spinning the plate at 1000 rpm for 1 minute and vortexing briefly, the cells were pre-incubated with the compounds for 30 minutes at room temperature (covered). Then 3 μl of the equivalent peptide ligand (EC50 dose) was added to all the wells except vehicle and forskolin controls. The plate were then spun down at 1000 rpm for 1 minute and once finished they were vortexed briefly and covered. Cells were stimulated in the presence of the ligands for 15 minutes at room temperature. After stimulation 12 μl of detection mix (Europium-Chelate streptavidin/biotinylated cAMP tracer solution) was added to all wells and incubated for 60 minutes at room temperature. The plate was then read on the Enspire multimode Plate reader (Perkin Elmer), at; 320/340 nm excitation and 615/665 nm emission was recorded.
Assay/Stimulation Buffer (30 mL)—pH 7.4 • 28 mL Hank's Balanced salt solution (+MgCl2, +CaCl2))—(Thermo Fisher Cat #:14170112) • 150 μl HEPES (1M)—(Thermo Fisher Cat #:15630080) • 400 μl Stabilizer (DTPA) Purified BSA (7.5%)—(Perkin Elmer, Cat #: CR84-100) • 60 μl IBMX (250 mM)—(Sigma Aldrich, Cat #: 15879)
The ability of a compound to inhibit the AM induced cAMP activation in AM2 receptor-expressing cells (1321N1 cells transfected with CALCRL+RAMP3, sourced from DiscoverX catalogue number 95-0169C6) was assessed using the protocol above.

T1 sequence (Q16602 23-461): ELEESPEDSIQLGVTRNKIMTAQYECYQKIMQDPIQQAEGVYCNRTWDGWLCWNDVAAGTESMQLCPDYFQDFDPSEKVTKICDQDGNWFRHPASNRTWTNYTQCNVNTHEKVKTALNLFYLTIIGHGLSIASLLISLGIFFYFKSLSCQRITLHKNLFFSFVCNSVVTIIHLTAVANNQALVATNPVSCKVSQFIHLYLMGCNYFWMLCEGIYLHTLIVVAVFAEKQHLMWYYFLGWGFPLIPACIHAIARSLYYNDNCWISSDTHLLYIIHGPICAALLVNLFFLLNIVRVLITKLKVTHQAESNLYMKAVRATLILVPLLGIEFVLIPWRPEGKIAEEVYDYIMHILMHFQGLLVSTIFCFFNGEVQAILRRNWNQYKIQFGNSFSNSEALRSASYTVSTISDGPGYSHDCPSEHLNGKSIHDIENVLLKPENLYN
T1 sequence (O60896 24-148): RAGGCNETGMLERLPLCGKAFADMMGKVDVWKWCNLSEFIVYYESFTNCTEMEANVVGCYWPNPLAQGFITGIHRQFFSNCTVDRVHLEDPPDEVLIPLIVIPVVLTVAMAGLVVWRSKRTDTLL

| SMILES | IC50 [nM] |
| --- | --- |
| CC(C)(C)C(=O)N(CC(=O)Nc1ccc2c(c1)CC1(C2)C(=O)Nc2ncccc21)C1CCCNC1 (stereo not shown) [Example 1, N-(2-Oxo-2-((2′-oxo-1,1′,2′,3-tetrahydrospiro[indene-2,3′-pyrrolo[2,3-b]pyridin]-5-yl)amino)ethyl)-N-(piperidin-3-yl)pivalamide] | 14.5 |
| CC1(C(=O)N(CC(=O)Nc2ccc3c(c2)C[C@@]2(C3)C(=O)Nc3ncccc32)[C@H]2CCCNC2)CCN(C(=O)c2ccccn2)CC1 [Example 17, 4-Methyl-N-(2-oxo-2-(((R)-2′-oxo-1,1′,2′,3-tetrahydrospiro[indene-2,3′-pyrrolo[2,3-b]pyridin]-5-yl)amino)ethyl)-1-picolinoyl-N—((S)-piperidin-3-yl)piperidine-4-carboxamide] | 18.6 |
| CC(C)(C(=O)N(CC(=O)Nc1ccc2c(c1)C[C@@]1(C2)C(=O)Nc2ncccc21)[C@H]1CCCNC1)C(F)(F)F [Example 9, 3,3,3-Trifluoro-2,2-dimethyl-N-(2-oxo-2-(((R)-2′-oxo-1,1′,2′,3-tetrahydrospiro[indene-2,3′-pyrrolo[2,3-b]pyridin]-5-yl)amino)ethyl)-N—((S)-piperidin-3-yl)propanamide] | 43.7 |
| CC(C)(CC(F)(F)F)C(=O)N(CC(=O)Nc1ccc2c(c1)C[C@@]1(C2)C(=O)Nc2ncccc21)[C@H]1CCCNC1 [Example 13, 4,4,4-Trifluoro-2,2-dimethyl-N-(2-oxo-2-(((R)-2′-oxo-1,1′,2′,3-tetrahydrospiro[indene-2,3′-pyrrolo[2,3-b]pyridin]-5-yl)amino)ethyl)-N—((S)-piperidin-3-yl)butanamide] | 63.1 |
| CC1(C(=O)N(CC(=O)Nc2ccc3c(c2)C[C@@]2(C3)C(=O)Nc3ncccc32)[C@H]2CCCNC2)CCN(C(=O)CN2CCNCC2)CC1 [Example 18, 4-Methyl-N-(2-oxo-2-(((R)-2′-oxo-1,1′,2′,3-tetrahydrospiro[indene-2,3′-pyrrolo[2,3-b]pyridin]-5-yl)amino)ethyl)-1-(2-(piperazin-1-yl)acetyl)-N—((S)-piperidin-3-yl)piperidine-4-carboxamide] | 67.6 |
| CC(C)(F)C(=O)N(CC(=O)Nc1ccc2c(c1)C[C@@]1(C2)C(=O)Nc2ncccc21)[C@H]1CCCNC1 [Example 6, 2-Fluoro-2-methyl-N-[2-oxo-2-[[(3R)-2-oxospiro[1H-pyrrolo[2,3-b]pyridine-3,2′-indane]-5′-yl]amino]ethyl]-N-[(3S)-3-piperidyl]propanamide] | 8320 |
| CCC1(C(=O)N(CC(=O)Nc2ccc3c(c2)C[C@@]2(C3)C(=O)Nc3ncccc32)[C@H]2CCCNC2)CCN(C(C)=O)CC1 [Example 19, 1-Acetyl-4-ethyl-N-(2-oxo-2-(((R)-2′-oxo-1,1′,2′,3-tetrahydrospiro[indene-2,3′-pyrrolo[2,3-b]pyridin]-5-yl)amino)ethyl)-N—((S)-piperidin-3-yl)piperidine-4-carboxamide] | 14.1 |
| CC(C)(C)C(=O)N(CC(=O)Nc1ccc2c(c1)C[C@@]1(C2)C(=O)Nc2ncccc21)[C@H]1CCCNC1 [Example 2, N-(2-Oxo-2-(((R)-2′-oxo-1,1′,2′,3-tetrahydrospiro[indene-2,3′-pyrrolo[2,3-b]pyridin]-5-yl)amino)ethyl)-N—((S)-piperidin-3-yl)pivalamide] | 3.02 |
| CC(C)(C#N)C(=O)N(CC(=O)Nc1ccc2c(c1)C[C@@]1(C2)C(=O)Nc2ncccc21)[C@H]1CCCNC1 [Example 10, 2-Cyano-2-methyl-N-(2-oxo-2-(((R)-2′-oxo-1,1′,2′,3-tetrahydrospiro[indene-2,3′-pyrrolo[2,3-b]pyridin]-5-yl)amino)ethyl)-N—((S)-piperidin-3-yl)propenamide] | 50.1 |
| O=C(CN(C(=O)C1CCCC1)[C@H]1CCCNC1)Nc1ccc2c(c1)C[C@@]1(C2)C(=O)Nc2ncccc21 [Example 5, N-(2-Oxo-2-(((R)-2′-oxo-1,1′,2′,3-tetrahydrospiro[indene-2,3′-pyrrolo[2,3-b]pyridin]-5-yl)amino)ethyl)-N—((S)-piperidin-3-yl)cyclopentanecarboxamide] | 170 |
| O=C(CN(C(=O)C1(C(F)(F)F)CC1)[C@H]1CCCNC1)Nc1ccc2c(c1)C[C@@]1(C2)C(=O)Nc2ncccc21 [Example 7, N-(2-Oxo-2-(((R)-2′-oxo-1,1′,2′,3-tetrahydrospiro[indene-2,3′-pyrrolo[2,3-b]pyridin]-5-yl)amino)ethyl)-N—((S)-piperidin-3-yl)-1-(trifluoromethyl)cyclopropanecarboxamide] | 955 |
| CCC1(C(=O)N(CC(=O)Nc2ccc3c(c2)C[C@@]2(C3)C(=O)Nc3ncccc32)[C@H]2CCCNC2)CCOCC1 [Example 14, 4-Ethyl-N-(2-oxo-2-(((R)-2′-oxo-1,1′,2′,3-tetrahydrospiro[indene-2,3′-pyrrolo[2,3-b]pyridin]-5-yl)amino)ethyl)-N—((S)-piperidin-3-yl)tetrahydro-2H-pyran-4-carboxamide] | 288 |

Continued, values first:

| IC50 [nM] | SMILES |
| --- | --- |
| 3020 | CC(C)(C)C(=O)N(CC(=O)Nc1ccc2c(c1)C[C@@]1(C2)C(=O)Nc2ncccc21)C1CC2CNC1C2 (stereo partly drawn) [Example 30, N-(2-Azabicyclo[2.2.1]heptan-6-yl)-N-(2-oxo-2-(((R)-2′-oxo-1,1′,2′,3-tetrahydrospiro[indene-2,3′-pyrrolo[2,3-b]pyridin]-5-yl)amino)ethyl)pivalamide] |
| 129 | CC(C)(C)C(=O)N(CC(=O)Nc1ccc2c(c1)CC1(C2)C(=O)Nc2ncccc21)C1CCCCNC1 (stereo not shown) [Example 25, N-(Azepan-3-yl)-N-(2-oxo-2-((2′-oxo-1,1′,2′,3-tetrahydrospiro[indene-2,3′-pyrrolo[2,3-b]pyridin]-5-yl)amino)ethyl)pivalamide] |
| 479 | CC(C)(C)C(=O)N(CC(=O)Nc1ccc2c(c1)CC1(C2)C(=O)Nc2ncccc21)C1CCCNCC1 (stereo not shown) [Example 26, N-(Azepan-4-yl)-N-(2-oxo-2-((2′-oxo-1,1′,2′,3-tetrahydrospiro[indene-2,3′-pyrrolo[2,3-b]pyridin]-5-yl)amino)ethyl)pivalamide] |
| 27.5 | CC1(C(=O)N(CC(=O)Nc2ccc3c(c2)C[C@@]2(C3)C(=O)Nc3ncccc32)[C@H]2CCCNC2)CCN(C(=O)N2CCCC2)CC1 [Example 21, 4-Methyl-N-(2-oxo-2-(((R)-2′-oxo-1,1′,2′,3-tetrahydrospiro[indene-2,3′-pyrrolo[2,3-b]pyridin]-5-yl)amino)ethyl)-N—((S)-piperidin-3-yl)-1-(pyrrolidine-1-carbonyl)piperidine-4-carboxamide] |
| 178 | C[C@@H]1CC[C@H](N(CC(=O)Nc2ccc3c(c2)C[C@@]2(C3)C(=O)Nc3ncccc32)C(=O)C(C)(C)C)CN1 (relative stereo) [Example 29, N-((3S*,6R*)-6-Methylpiperidin-3-yl)-N-(2-oxo-2-(((R)-2′-oxo-1,1′,2′,3-tetrahydrospiro[indene-2,3′-pyrrolo[2,3-b]pyridin]-5-yl)amino)ethyl)pivalamide] |
| 200 | CC(C)(C)C(=O)N(CC(=O)Nc1ccc2c(c1)C[C@@]1(C2)C(=O)Nc2ncccc21)C1CCC2CCC1N2 (single isomer, unassigned) [Example 31B] |
| 51.3 | C[C@@H]1CNC[C@@H](N(CC(=O)Nc2ccc3c(c2)C[C@@]2(C3)C(=O)Nc3ncccc32)C(=O)C(C)(C)C)C1 (relative stereo) [Example 27, N-((3S*,5S*)-5-Methylpiperidin-3-yl)-N-(2-oxo-2-(((R)-2′-oxo-1,1′,2′,3-tetrahydrospiro[indene-2,3′-pyrrolo[2,3-b]pyridin]-5-yl)amino)ethyl)pivalamide] |
